{"source": "patent US20150105252A1", "about": "“SUBSTITUTED PYRAZOLES AS HERBICIDES” (E I DU PONT DE NEMOURS AND COMPANY, priority 2013, published 2015)", "key": {"wheat [1]": {"system": "wheat", "test": "Test A postemergence", "format": "in vivo, Triticum aestivum", "in_short": "(§1)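 Visual injury ratings, 0 = no effect to 100 = complete control, taken about 10 days after treatment against untreated controls. Test chemicals, in a non-phytotoxic surfactant-containing solvent, were sprayed onto soil preemergence or onto one- to two-leaf plants (2–10 cm) postemergence, in loam–sand soil under greenhouse conditions.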"}, "kochia": {"system": "kochia", "test": "Test C postemergence", "format": "in vivo, Kochia scoparia", "in_short": "(§2)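 Visual control ratings on a 0–100 scale (100 = complete control) made against untreated controls after 13 to 15 days in greenhouse. Compounds applied in surfactant-containing solvent mixture, either preemergence to loam/sand-sown seeds or postemergence to 1- to 4-leaf plants (2–18 cm) in peat medium.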"}, "foxtail, giant [2]": {"system": "foxtail, giant", "test": "Test C preemergence", "format": "in vivo, Setaria faberii", "conditions": "for Foxtail, Giant plant response rating: preemergence", "in_short": "as §2"}, "velvetleaf [3]": {"system": "velvetleaf", "test": "Test C postemergence", "format": "in vivo, Abutilon theophrasti", "in_short": "as §2"}, "foxtail, giant [4]": {"system": "foxtail, giant", "test": "Test A postemergence", "format": "in vivo, Setaria faberii", "in_short": "as §1"}, "velvetleaf [5]": {"system": "velvetleaf", "test": "Test A postemergence", "format": "in vivo, Abutilon theophrasti", "in_short": "as §1"}, "wheat [6]": {"system": "wheat", "test": "Test C postemergence", "format": "in vivo, Triticum aestivum", "in_short": "as §2"}, "corn [7]": {"system": "corn", "test": "Test A postemergence", "format": "in vivo, Zea mays", "in_short": "as §1"}, "galium [8]": {"system": "galium", "test": "Test C postemergence", "format": "in vivo, Galium aparine", "from_the_text": "(§3) Seeds of plant species selected from blackgrass (Alopecurus myosuroides), ryegrass, Italian (Italian ryegrass, Lolium multiflorum), wheat (winter wheat, Triticum aestivum), galium (catchweed bedstraw, Galium aparine), corn (Zea mays), crabgrass, large (large crabgrass, Digitaria sanguinalis), foxtail, giant (giant foxtail, Setaria faberii), johnsongrass (Sorghum halepense), lambsquarters (Chenopodium album), morningglory (Ipomoea coccinea), nutsedge, yellow (yellow nutsedge, Cyperus esculentus), pigweed (redroot pigweed, Amaranthus retroflexus), ragweed (common ragweed, Ambrosia elation), soybean (Glycine max), barnyardgrass (Echinochloa crus-galli), oilseed rape (Brassica napus), waterhemp (common waterhemp, Amaranthus rudis), oat, wild (wild oat, Avena fatua), kochia (Kochia scoparia), Surinam grass (Brachiaria decumbens), foxtail, green (green foxtail, Setaria viridis), goosegrass (Eleusine indica), bromegrass, downy (downy bromegrass, Bromus tectorum), nightshade (eastern black nightshade, Solanum ptycanthum), cocklebur (common cocklebur, Xanthium strumarium), cupgrass, woolly (woolly cupgrass, Eriochloa villosa), bermudagrass (Cynodon dactylon), sunflower, (common oilseed sunflower, Helianthus annuus), Russian thistle (Salsola kali), and velvetleaf (Abutilon theophrasti) were planted into a blend of loam soil and sand and treated preemergence with test chemicals formulated in a non-phytotoxic solvent mixture which included a surfactant.\n(§4) At the same time, plants selected from these crop and weed species and also chickweed (common chickweed, Stellaria media), canarygrass (littleseed canarygrass, Phalaris minor), and deadnettle (henbit deadnettle, Lamium amplexicaule), were planted in pots containing Redi-Earth® planting medium (Scotts Company, 14111 Scottslawn Road, Marysville, Ohio 43041) comprising spaghnum peat moss, vermiculite, wetting agent and starter nutrients and treated with postemergence applications of test chemicals formulated in the same manner. Plants ranged in height from 2 to 18 cm (1- to 4-leaf stage) for postemergence treatments. Treated plants and controls were maintained in a greenhouse for 13 to 15 days, after which time all species were compared to controls and visually evaluated. Plant response ratings, summarized in Table C, are based on a scale of 0 to 100 where 0 is no effect and 100 is complete control. A dash (-) response means no test result."}, "barnyardgrass": {"system": "barnyardgrass", "test": "Test C postemergence", "format": "in vivo, Echinochloa crus-galli", "from_the_text": "as §3, §4"}, "foxtail, giant [9]": {"system": "foxtail, giant", "test": "Test C postemergence", "format": "in vivo, Setaria faberii", "in_short": "as §2"}, "soybean": {"system": "soybean", "test": "Test C preemergence", "format": "in vivo, Glycine max", "conditions": "for Soybean plant response rating: preemergence", "in_short": "as §2"}, "galium [10]": {"system": "galium", "test": "Test C preemergence", "format": "in vivo, Galium aparine", "conditions": "for Galium plant response rating: preemergence, scale 0 to 100 (0 no effect, 100 complete control), 13 to 15 days", "in_short": "as §2"}, "waterhemp": {"system": "waterhemp", "test": "Test C preemergence", "format": "in vivo, Amaranthus rudis", "conditions": "for Waterhemp plant response rating: preemergence", "in_short": "as §2"}, "corn [11]": {"system": "corn", "test": "Test C preemergence", "format": "in vivo, Zea mays", "conditions": "for Corn plant response rating: preemergence", "in_short": "as §2"}, "[12]": {"conditions": "Postemergence, 500 g ai/ha, visual rating after approx. 10 days, 0 to 100 scale (0 no effect, 100 complete control)"}, "[13]": {"conditions": "postemergence, 125 g ai/ha, about 10 days, visual rating on 0 to 100 scale (0 no effect, 100 complete control)"}, "[14]": {"conditions": "Postemergence, 31 g ai/ha, visually evaluated after 13 to 15 days"}, "[15]": {"conditions": "postemergence, 62 g ai/ha, scale 0 to 100"}, "[16]": {"conditions": "postemergence, 250 g ai/ha, scale 0 to 100 (0 no effect, 100 complete control)"}, "[17]": {"conditions": "postemergence, 125 g ai/ha, scale 0 to 100, 0 no effect, 100 complete control"}, "[18]": {"conditions": "31 g ai/ha, visual rating, scale 0 to 100 (0 no effect, 100 complete control), 13 to 15 days"}, "[19]": {"conditions": "62 g ai/ha, scale 0 to 100 (0 no effect, 100 complete control), 13 to 15 days"}, "[20]": {"conditions": "125 g ai/ha, scale 0 to 100, 0 is no effect, 100 is complete control"}}, "data": [{"smiles": "CCc1cc(-c2ccc(C(F)(F)F)cc2)nn1Cc1ccnc(C(F)(F)F)c1", "note": "[Compound 110]", "values": [{"measurement": "Wheat plant response rating", "setting": "wheat [1]; [12]", "result": 90}, {"measurement": "Wheat plant response rating", "setting": "wheat [1]; [13]", "result": 80}, {"measurement": "Plant response rating (scale of 0 to 100 where 0 is no effect and 100 is complete control), Kochia", "setting": "kochia; [14]", "result": 90}, {"measurement": "Kochia plant response rating", "setting": "kochia; [15]", "result": 90}, {"measurement": "Plant response rating, Kochia", "setting": "kochia; [16]", "result": 90}, {"measurement": "Plant response rating, Kochia", "setting": "kochia; [17]", "result": 90}, {"measurement": "Plant response rating (scale of 0 to 100), Foxtail, Giant", "setting": "foxtail, giant [2]; Preemergence, 250 g ai/ha", "result": 100}, {"measurement": "Foxtail, Giant plant response rating", "setting": "foxtail, giant [2]; [18]", "result": 98}, {"measurement": "Foxtail, Giant plant response rating", "setting": "foxtail, giant [2]; [19]", "result": 98}, {"measurement": "Foxtail, Giant plant response rating", "setting": "foxtail, giant [2]; [20]", "result": 100}, {"measurement": "Plant response rating (scale of 0 to 100 where 0 is no effect and 100 is complete control), Velvetleaf", "setting": "velvetleaf [3]; [14]", "result": 30}, {"measurement": "Velvetleaf plant response rating", "setting": "velvetleaf [3]; [15]", "result": 50}, {"measurement": "Plant response rating, Velvetleaf", "setting": "velvetleaf [3]; [16]", "result": 75}, {"measurement": "Plant response rating, Velvetleaf", "setting": "velvetleaf [3]; [17]", "result": 70}, {"measurement": "Foxtail, Giant plant response rating", "setting": "foxtail, giant [4]; [12]", "result": 100}, {"measurement": "Foxtail, Giant plant response rating", "setting": "foxtail, giant [4]; [13]", "result": 90}, {"measurement": "Velvetleaf plant response rating", "setting": "velvetleaf [5]; [12]", "result": 100}, {"measurement": "Velvetleaf plant response rating", "setting": "velvetleaf [5]; [13]", "result": 90}, {"measurement": "Plant response rating (scale of 0 to 100 where 0 is no effect and 100 is complete control), Wheat", "setting": "wheat [6]; [14]", "result": 5}, {"measurement": "Wheat plant response rating", "setting": "wheat [6]; [15]", "result": 5}, {"measurement": "Plant response rating, Wheat", "setting": "wheat [6]; [16]", "result": 5}, {"measurement": "Plant response rating, Wheat", "setting": "wheat [6]; [17]", "result": 5}, {"measurement": "Corn plant response rating", "setting": "corn [7]; [12]", "result": 90}, {"measurement": "Corn plant response rating", "setting": "corn [7]; [13]", "result": 80}, {"measurement": "Plant response rating (scale of 0 to 100 where 0 is no effect and 100 is complete control), Galium", "setting": "galium [8]; [14]", "result": 60}, {"measurement": "Galium plant response rating", "setting": "galium [8]; [15]", "result": 60}, {"measurement": "Plant response rating, Galium", "setting": "galium [8]; [17]", "result": 90}, {"measurement": "Plant response rating (scale of 0 to 100 where 0 is no effect and 100 is complete control), Barnyardgrass", "setting": "barnyardgrass; [14]", "result": 20}, {"measurement": "Barnyardgrass plant response rating", "setting": "barnyardgrass; [15]", "result": 35}, {"measurement": "Plant response rating, Barnyardgrass", "setting": "barnyardgrass; [16]", "result": 65}, {"measurement": "Plant response rating, Barnyardgrass", "setting": "barnyardgrass; [17]", "result": 55}, {"measurement": "Plant response rating (scale of 0 to 100 where 0 is no effect and 100 is complete control), Foxtail, Giant", "setting": "foxtail, giant [9]; [14]", "result": 35}, {"measurement": "Foxtail, Giant plant response rating", "setting": "foxtail, giant [9]; [15]", "result": 40}, {"measurement": "Plant response rating, Foxtail, Giant", "setting": "foxtail, giant [9]; [16]", "result": 70}, {"measurement": "Plant response rating, Foxtail, Giant", "setting": "foxtail, giant [9]; [17]", "result": 60}, {"measurement": "Plant response rating (scale of 0 to 100), Soybean", "setting": "soybean; Preemergence, 250 g ai/ha", "result": 20}, {"measurement": "Soybean plant response rating", "setting": "soybean; [18]", "result": 10}, {"measurement": "Soybean plant response rating", "setting": "soybean; [20]", "result": 15}, {"measurement": "Plant response rating (scale of 0 to 100), Galium", "setting": "galium [10]; Preemergence, 250 g ai/ha", "result": 100}, {"measurement": "Galium plant response rating", "setting": "galium [10]; 31 g ai/ha, visual rating", "result": 50}, {"measurement": "Galium plant response rating", "setting": "galium [10]; 62 g ai/ha", "result": 90}, {"measurement": "Plant response rating (scale of 0 to 100), Waterhemp", "setting": "waterhemp; Preemergence, 250 g ai/ha", "result": 100}, {"measurement": "Waterhemp plant response rating", "setting": "waterhemp; [18]", "result": 100}, {"measurement": "Waterhemp plant response rating", "setting": "waterhemp; [19]", "result": 100}, {"measurement": "Waterhemp plant response rating", "setting": "waterhemp; [20]", "result": 100}, {"measurement": "Plant response rating (scale of 0 to 100), Corn", "setting": "corn [11]; Preemergence, 250 g ai/ha", "result": 10}, {"measurement": "Corn plant response rating", "setting": "corn [11]; [18]", "result": 5}, {"measurement": "Corn plant response rating", "setting": "corn [11]; [19]", "result": 5}, {"measurement": "Corn plant response rating", "setting": "corn [11]; [20]", "result": 5}]}]}
